Laboratory results taken from patent US8748435B2, “Pyrazolo pyrimidine derivatives” (Novartis AG, priority 2011, dated 2014).
Counter-ions that a name gives are not always drawn.

How the values were obtained:
human GPR4 [1] = biological target: T1, human GPR4 (Homo sapiens (Human), UniProt P46093); assay: Human GPR4 binding assay ([3H]4 radioligand, membranes of 300.19 cells expressing human GPR4)
Procedure: a) Human GPR4 Binding Assay
(§1) Cells were grown in T175 flasks to a density of about 1×10^6 cells/mL in growth medium. The cells were harvested by centrifugation (3000 rpm for 30 minutes at 4° C.) and the pellet resuspended in ice cold buffer A (20 mM HEPES pH 7.8, 10 mM EDTA, 100 mM NaCl, 1 tab/40 mL protease inhibitor complete). […] The homogenate was centrifuged at 18000 rpm for 50 min at 4° C. and the membrane protein pellet resuspended in cold buffer A using the Polytron (2×20 seconds). The protein concentration is determined using the Bio Rad Protein Assay and human IgG as standard. The volume of the membrane protein suspension is adjusted to a final concentration of about 2 mg protein/mL. The suspension is then once again homogenized (Polytron) on ice at 25000 rpm for 20 seconds before being aliquoted and stored at −80° C.
(§2) Radio Ligand Binding Assay: Serial dilutions of compounds (stock in 10 mM DMSO) are prepared by first diluting the compounds in DMSO followed by a 1:50 dilution into assay buffer (10 mM HEPES, pH 8.0, 100 mM NaCl, 5 mM MgCl2, 1 mM CaCl2, 0.5% fatty acid-free BSA, 0.05% Tween-20). […] The desired amount of membranes (20 μg/well) is diluted with assay buffer. […] 100 μL of the membrane-suspension is added and the plate stirred for 60 minutes. […] The filter plate is washed 5 times with ice-cold wash buffer, dried and sealed at the bottom. Then 20 μL of Microscint 40 is added into each well and the top of the plate is sealed. Finally the plate is counted for 2 min/well in a TopCount NXT instrument (Packard Instruments). The data are analyzed using the GraphPad Prism™ software.

human GPR4 [2] = biological target: T1, human GPR4; assay: Human GPR4 binding assay with additional human serum albumin (4% HSA); details: binding assay with 4% HSA
Procedure: as §1, §2
In a similar manner, a binding assay with additional human serum albumin (4% HSA) has been established.

human GPR4 [3] = biological target: T1, human GPR4; assay: Cell-based assay for human GPR4 activity (pH-induced cAMP formation, HTRF, HeLa cells); details: HeLa cells stably expressing human GPR4, pH-induced cAMP
Procedure: b) Cell-Based Assay for Human GPR4 Activity
(§3) HeLa cells stably expressing human GPR4 were established by transfecting the cells with a construct containing the human GPR4 coding sequence. The cells were grown in Dulbecco's Modified Eagle Medium (DMEM)/HAM's tissue culture medium F12 (HAM's F12) supplemented with 10% fetal calf serum (FCS), 100 u/ml penicillin, 100 μg/ml streptomycin and 400 μg/ml G418 and 10 mM Hepes pH 8.0. pH-induced formation of cAMP was determined using the homogeneous time resolved fluorescence (HTRF) technology as provided by CisBio Inc. The cells were seeded in 384-well plates and cultured for 24 hours at 37° C., 5% CO2 before performing the assay. Medium was removed and 10 μl buffer A (Hepes buffered saline (HBS), 10 mM Hepes, pH 8, 2 mM 3-Isobutyl-1-methylxanthin (IBMX)) was added. For compound testing, buffer A with 2× concentrated compounds was used. Cells were incubated for 15 min at room temperature. 10 μl buffer B (HBS, 30 mM Hepes, specific pH) was added to reach the appropriate final pH for stimulation (see below) and incubation was continued for 15 min at room temperature. […] HBS: 130 mM NaCl, 0.9 mM NaH2 PO4, 5.4 mM KCl, 0.8 mM MgSO4, CaCl2 1.8 mM, 25 mM glucose, 10-30 mM Hepes. Adjustment of HBS buffers:
(§4) Compounds were diluted from fresh stock solutions at 10 mM in DMSO to 2 mM and then used for serial dilutions in DMSO.

mouse GPR4 = mouse GPR4 (Mus musculus (Mouse), UniProt Q8BUD0); assay: Mouse GPR4 cAMP assay; assay type: cell-based
Chain of mouse GPR4 (Q8BUD0 whole entry): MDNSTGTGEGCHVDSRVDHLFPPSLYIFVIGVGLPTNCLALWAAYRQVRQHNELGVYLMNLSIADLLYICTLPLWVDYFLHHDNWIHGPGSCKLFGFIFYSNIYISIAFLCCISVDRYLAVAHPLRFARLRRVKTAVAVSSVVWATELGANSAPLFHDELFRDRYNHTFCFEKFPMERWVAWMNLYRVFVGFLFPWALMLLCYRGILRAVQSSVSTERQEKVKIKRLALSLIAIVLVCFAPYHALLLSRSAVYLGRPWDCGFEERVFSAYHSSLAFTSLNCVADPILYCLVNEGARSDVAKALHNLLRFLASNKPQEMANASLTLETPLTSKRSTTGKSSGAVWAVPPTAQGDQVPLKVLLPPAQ
Procedure: as §3, §4
(§5) In a similar manner, assays for the mouse (m) and rat (r) GPR4 receptors have been established.

rat GPR4 = rat GPR4 (Rattus norvegicus (Rat), UniProt Q4KLH9); assay: Rat GPR4 cAMP assay; assay type: cell-based; details: read-out: r cAMP IC50
Chain of rat GPR4 (Q4KLH9 whole entry): as the sequence (Q8BUD0 whole entry) above, with G8W, H51R, S339T counted along it
Procedure: as §3, §4, §5

Human H3 = Human H3 (Homo sapiens (Human), UniProt Q9Y5N1); assay: Human H3 binding assay (SPA, [3H]-R-alpha-Methylhistamine); details: 3 nM [3H]-R-alpha-Methylhistamine
Chain of Human H3 (Q9Y5N1 whole entry): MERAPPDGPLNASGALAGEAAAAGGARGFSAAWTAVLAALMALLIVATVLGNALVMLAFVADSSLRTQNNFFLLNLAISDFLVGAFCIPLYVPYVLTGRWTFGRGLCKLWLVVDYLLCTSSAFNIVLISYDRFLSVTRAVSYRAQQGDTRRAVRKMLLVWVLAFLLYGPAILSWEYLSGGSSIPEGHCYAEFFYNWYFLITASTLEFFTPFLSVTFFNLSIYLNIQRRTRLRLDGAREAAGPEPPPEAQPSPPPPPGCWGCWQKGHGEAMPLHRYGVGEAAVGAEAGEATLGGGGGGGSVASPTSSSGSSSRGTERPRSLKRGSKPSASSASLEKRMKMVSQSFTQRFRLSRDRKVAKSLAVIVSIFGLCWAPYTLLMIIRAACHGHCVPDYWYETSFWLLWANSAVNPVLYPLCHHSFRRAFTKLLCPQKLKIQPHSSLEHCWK
Procedure: c) Human H3 Binding Assay
The Scintillation Proximity Binding Assay (SPA) assay was performed in a final volume of 50 μL per well in a 384-well polystyrene plate.
The final concentration of the radioligand was 3 nM. • 20 μL of a beads (PVT-WGA type A) and membranes mixed suspension in assay buffer, in order to get a final concentration of 10 μg/well of membranes and 200 μg/well of beads. As an example, 1471 μL membranes (Conc.: 5.1 mg/mL) and 1500 μL of bead suspension (Conc.: 100 mg/mL) are diluted to a final volume of 15 mL of assay buffer.
The plates were sealed and shaken at room temperature, then allowed to stand at room temperature for at least 1 hour. The plates were counted using a Perkin Elmer TopCount reader, each well being counted for 1 minute.

[4] = radioligand [3H]4 (example 39), membranes of 300.19 cells expressing human GPR4

T1 sequence (P46093 whole entry): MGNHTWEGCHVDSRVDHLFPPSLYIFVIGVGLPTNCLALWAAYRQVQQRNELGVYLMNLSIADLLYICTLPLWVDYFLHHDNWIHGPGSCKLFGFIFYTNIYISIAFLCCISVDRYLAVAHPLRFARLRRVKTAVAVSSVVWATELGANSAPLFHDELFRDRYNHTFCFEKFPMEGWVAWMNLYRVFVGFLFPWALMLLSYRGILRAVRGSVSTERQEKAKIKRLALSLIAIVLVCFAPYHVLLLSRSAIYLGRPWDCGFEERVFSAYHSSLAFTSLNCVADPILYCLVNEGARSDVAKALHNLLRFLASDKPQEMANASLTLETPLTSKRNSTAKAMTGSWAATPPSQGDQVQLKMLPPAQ

| SMILES | IC50 (human GPR4 [1]; [4]) [nM] | IC50 (human GPR4 [2]) [nM] | IC50 (human GPR4 [3]) [nM] | IC50 (mouse GPR4) [nM] | IC50 (rat GPR4) [nM] | IC50 (Human H3) [nM] | IC50 (human GPR4 [1]) [nM] | IC50 (human GPR4 [2]; read-out: GPR4 4% HSA IC50) [nM] |
| --- | --- | --- | --- | --- | --- | --- | --- | --- |
| CCc1nn2c(C)cc(C)nc2c1Cc1ccc(/C=C/CC2(O)CCNCC2)cc1 [Example 3, 4-{(E)-3-[4-(2-Ethyl-5,7-dimethyl-pyrazolo[1,5-a]pyrimidin-3-ylmethyl)-phenyl]-allyl}-piperidin-4-ol] | 44 | 49 | 31 | 124 | 338 | > 30000 |  |  |
| CCc1nn2c(C)cc(C)nc2c1Cc1ccc(/C=C/C[C@]2(O)CCN[C@@H](C)C2)cc1 [Example 5, (2S,4S)-4-{(E)-3-[4-(2-Ethyl-5,7-dimethyl-pyrazolo[1,5-a]pyrimidin-3-ylmethyl)-phenyl]-allyl}-2-methyl-piperidin-4-ol] | 15 | 11 | 17 | 70 | 162 | > 30000 |  |  |
| CCc1nn2c(C)cc(C)nc2c1Cc1ccc(/C=C/CC2(O)CCN(C(=O)CNC)CC2)cc1 [Example 7, 1-(4-{(E)-3-[4-(2-Ethyl-5,7-dimethyl-pyrazolo[1,5-a]pyrimidin-3-ylmethyl)-phenyl]-allyl}-4-hydroxy-piperidin-1-yl)-2-methylamino-ethanone hydrochloride] |  | 56 | 33 | 253 | 1720 | > 30000 | 34 |  |
| CCc1nn2c(C)cc(C)nc2c1Cc1ccc(/C=C/CN2CCN[C@H](COC)C2)cc1 [Example 10, 2-Ethyl-3-{4-[(E)-3-((S)-3-methoxymethyl-piperazin-1-yl)-propenyl]-benzyl}-5,7-dimethyl-pyrazolo[1,5-a]pyrimidine] | 33 | 93 | 54 | 401 | 1340 | > 30000 |  |  |
| CCc1nn2c(C)cc(C)nc2c1Cc1ccc(/C=C/CN2CCN[C@@H](CN(C)C)C2)cc1 [Example 13, ((S)-4-{(E)-3-[4-(2-Ethyl-5,7-dimethyl-pyrazolo[1,5-a]pyrimidin-3-ylmethyl)-phenyl]-allyl}-piperazin-2-ylmethyl)-dimethyl-amine trihydrochloride] |  | 7 | 68 | 388 | 1690 | 4900 | 7 |  |
| CCc1nn2c(C)cc(C)nc2c1Cc1ccc(/C=C/CN2CCNCC2)cc1 [Example 14, 2-Ethyl-5,7-dimethyl-3-[4-((E)-3-piperazin-1-yl-propenyl)-benzyl]-pyrazolo[1,5-a]pyrimidine] | 10 | 12 | 55 | 127 | 691 | > 30000 |  |  |
| CCc1nn2c(C)cc(C)nc2c1Cc1ccc(/C=C/CN2CCN(C(=O)[C@H](CO)NC)CC2)cc1 [Example 15, (S)-1-(4-{(E)-3-[4-(2-Ethyl-5,7-dimethyl-pyrazolo[1,5-a]pyrimidin-3-ylmethyl)-phenyl]-allyl}-piperazin-1-yl)-3-hydroxy-2-methylamino-propan-1-one] | 51 | 44 | 56 | 216 | 634 | 26000 |  |  |
| CCc1nn2c(C)cc(C)nc2c1Cc1ccc(/C=C/CN2CCN(C(=O)[C@H]3NCC[C@H]3O)CC2)cc1 [Example 16, (4-{(E)-3-[4-(2-Ethyl-5,7-dimethyl-pyrazolo[1,5-a]pyrimidin-3-ylmethyl)-phenyl]-allyl}-piperazin-1-yl)-((2S,3R)-3-hydroxy-pyrrolidin-2-yl)-methanone dihydrochloride] | 35 | 120 | 41 | 200 | 837 | > 30000 |  |  |
| CCc1nn2c(C)cc(C)nc2c1Cc1ccc(/C=C/C(=O)N2CCNCC2)cc1 [Example 18, (E)-3-[4-(2-Ethyl-5,7-dimethyl-pyrazolo[1,5-a]pyrimidin-3-ylmethyl)-phenyl]-1-piperazin-1-yl-propenone hydrochloride] | 81 |  | 43 | 1280 | 1800 | > 30000 |  | 67 |
| CCc1nn2c(C)cc(C)nc2c1Cc1ccc(OCCC2(O)CCNCC2)cc1 [Example 25, 4-{2-[4-(2-Ethyl-5,7-dimethyl-pyrazolo[1,5-a]pyrimidin-3-ylmethyl)-phenoxy]-ethyl}-piperidin-4-ol] | 110 | 63 | 52 | 635 | 2090 | > 30000 |  |  |
| CCc1nn2c(C)cc(C)nc2c1Cc1ccc(OCCN2CCNCC2)cc1 [Example 26, 2-Ethyl-5,7-dimethyl-3-[4-(2-piperazin-1-yl-ethoxy)-benzyl]-pyrazolo[1,5-a]pyrimidine] |  | 69 | 96 | 633 | 2640 | > 30000 | 44 |  |
| CCc1nn2c(C)cc(C)nc2c1Cc1ccc(OCCN2CCN[C@@H](COC)C2)cc1 [Example 27, 2-Ethyl-3-{4-[2-((R)-3-methoxymethyl-piperazin-1-yl)-ethoxy]-benzyl}-5,7-dimethyl-pyrazolo[1,5-a]pyrimidine] | 59 | 81 | 64 | 507 | 2630 | > 30000 |  |  |
| CCc1nn2c(C)cc(C)nc2c1Cc1ccc(-n2cc(CN3CC(N)C3)cn2)cc1 [Example 29, 1-{1-[4-(2-Ethyl-5,7-dimethyl-pyrazolo[1,5-a]pyrimidin-3-ylmethyl)-phenyl]-1H-pyrazol-4-ylmethyl}-azetidin-3-ylamine] | 21 | 30 | 36 | 211 | 430 | > 30000 |  |  |
| CCc1nn2c(C)cc(C)nc2c1Cc1ccc(-n2cc(CC3(O)CCNCC3)nn2)cc1 [Example 34, 4-{1-[4-(2-Ethyl-5,7-dimethyl-pyrazolo[1,5-a]pyrimidin-3-ylmethyl)-phenyl]-1H-[1,2,3]triazol-4-ylmethyl}-piperidin-4-ol] |  | 78 | 58 | 534 | 1230 | > 30000 | 77 |  |
| CCc1nn2c(C)cc(C)nc2c1Cc1ccc(-c2nnc([C@H]3CC[C@H](N)CC3)o2)cc1 [Example 36, 4-{5-[4-(2-Ethyl-5,7-dimethyl-pyrazolo[1,5-a]pyrimidin-3-ylmethyl)-phenyl]-[1,3,4]oxadiazol-2-yl}-cyclohexylamine] | 5 | 17 | 51 | 284 | 2290 | > 30000 |  |  |
